Experiment [1] is described as follows: Glutathione peroxidase-like activity in pH 7.5 potassium phosphate buffer assessed as catalytic reduction of H2O2 by measuring initial velocity at 25 degreeC using GSH in presence of NADPH by UV absorbance analysis (reference value: 30.41+/- 2.06 microM/min). It is filed as functional.
Experiment [2] has as its system PC-12. Kind of experiment: Cytoprotective activity against H2O2- induced cell death in rat PC-12 cells assessed as decrease in LDH release pretreated for 12 hrs followed by H2O2 challenge by LDH assay. Type of experiment: functional, cell-based. Particulars: dose 2.5-10 µM. (In general: LDH leaks from cells whose membrane has failed.)
The subject of experiment [3] is PC-12. Kind of experiment: Protection against 6-OHDA-induced mitochondrial dysfunction in rat PC-12 cells assessed as change in mitochondrial membrane potential at 10 uM pretreated with compound for 12 hrs followed by 6-OHDA challenge by JC-1 staining based flow cytometry (reference value: 56 %). It is filed as functional. In general terms: A flow cytometer gives signals particle by particle.

Experiment [4] concerns PC-12. The experiment is described as follows: Protection against H2O2-induced apoptosis in rat PC-12 cells assessed as early apoptic cells at 2.5 uM pretreated for 12 hrs followed by H2O2 challenge by annexin V FITC/propidium iodide staining based flow cytometry (reference value: 2.2 %). It is filed as functional.
For experiment [5], the system named is PC-12. The experiment is described as follows: Protection against H2O2-induced apoptosis in rat PC-12 cells assessed as late apoptic cells at 2.5 uM pretreated for 12 hrs followed by H2O2 challenge by annexin V FITC/propidium iodide staining based flow cytometry (reference value: 20.8 %). Type of experiment: functional.
Experiment [6] deals with PC-12. Kind of experiment: Protection against H2O2-induced apoptosis in rat PC-12 cells assessed as viable cells at 5 uM pretreated for 12 hrs followed by H2O2 challenge by annexin V FITC/propidium iodide staining based flow cytometry (reference value: 73.3 %). Type of experiment: functional. As to conditions: read-out: Activity.
In experiment [7] the test system is PC-12. The experiment is described as follows: Protection against H2O2-induced apoptosis in rat PC-12 cells assessed as early apoptic cells at 10 uM pretreated for 12 hrs followed by H2O2 challenge by annexin V FITC/propidium iodide staining based flow cytometry (reference value: 2.2 %). It is filed as functional.
The test system of experiment [8] is PC-12. Kind of experiment: Protection against H2O2-induced apoptosis in rat PC-12 cells assessed as late apoptic cells at 10 uM pretreated for 12 hrs followed by H2O2 challenge by annexin V FITC/propidium iodide staining based flow cytometry (reference value: 20.8 %). It is filed as functional.
Experiment [9] concerns PC-12. The experiment is described as follows: Protection against 6-OHDA-induced apoptosis in rat PC-12 cells assessed as viable cells at 10 uM pretreated for 12 hrs followed by 6-OHDA challenge by annexin V FITC/propidium iodide staining based flow cytometry (reference value: 76.7 %). It is filed as functional. As to conditions: read-out: Activity.
The subject of experiment [10] is PC-12. The experiment is described as follows: Protection against 6-OHDA-induced apoptosis in rat PC-12 cells assessed as late apoptotic cells at 10 uM pretreated for 12 hrs followed by 6-OHDA challenge by annexin V FITC/propidium iodide staining based flow cytometry (reference value: 17.3 %). Type of experiment: functional.
Experiment [11] deals with PC-12. The experiment is described as follows: Protection against 6-OHDA-induced apoptosis in rat PC-12 cells assessed as necrotic cells at 10 uM pretreated for 12 hrs followed by 6-OHDA challenge by annexin V FITC/propidium iodide staining based flow cytometry (reference value: 3.7 %). Type of experiment: functional.
For experiment [12], the system named is PC-12. The experiment is described as follows: Protection against H2O2-induced apoptosis in rat PC-12 cells assessed as cell rescue pretreated for 12 hrs followed by H2O2 challenge by Hoechst 33342 staining based confocal microscopic analysis. Type of experiment: functional. As to conditions: dose 2.5-10 µM.
Experiment [13] concerns PC-12. The experiment is described as follows: Cytoprotective activity against H2O2-induced oxidative stress in rat PC-12 cells assessed as decrease in cell death at 10 uM pretreated for 12 hrs followed by H2O2 challenge by MTT assay. It is filed as functional, cell-based. (In general: Tetrazolium assays rely on reduction of a dye to a coloured formazan, in cell work by metabolically active cells.)

For experiment [14], the system named is PC-12. The experiment is described as follows: Cytoprotective activity against H2O2-induced oxidative stress in rat PC-12 cells assessed as decrease in cell death at 10 uM pretreated with brusatol for 1 hr followed by compound treatment for 12 hrs and subsequent H2O2 challenge by MTT assay. Type of experiment: functional, cell-based.
The subject of experiment [15] is PC-12. Kind of experiment: Cytoprotective activity against 6-OHDA-induced oxidative stress in rat PC-12 cells assessed as decrease in cell death at 10 uM pretreated with brusatol for 1 hr followed by compound treatment for 12 hrs and subsequent 6-OHDA challenge by MTT assay. Type of experiment: functional, cell-based.
The test system of experiment [16] is PC-12. Kind of experiment: Activation of Keap1-Nrf2-ARE pathway in rat PC-12 assessed as upregulation of HO-1 protein expression measured after 12 hrs by Western blot analysis. Particulars: filed as activator, dose 2.5-10 µM.
Experiment [17] deals with PC-12. The experiment is described as follows: Activation of Keap1-Nrf2-ARE pathway in rat PC-12 assessed as upregulation of GCLM protein expression measured after 12 hrs by Western blot analysis. Particulars: filed as activator, dose 2.5-10 µM.
Experiment [18] relates to PC-12. The experiment is described as follows: Activation of Keap1-Nrf2-ARE pathway in rat PC-12 assessed as upregulation of total Nrf2 protein expression at 10 uM measured after 3 hrs by Western blot analysis. Particulars: filed as activator.
Experiment [19] relates to PC-12. The experiment is described as follows: Activation of Keap1-Nrf2-ARE pathway in rat PC-12 assessed as upregulation of HO-1 protein expression at 10 uM measured after 6 to 24 hrs by Western blot analysis. As to conditions: filed as activator, time 6-24 hrs.
Experiment [20] concerns the target T1, Nuclear factor erythroid 2-related factor 2 (Mus musculus) (UniProt Q60795).
T1 sequence (whole entry): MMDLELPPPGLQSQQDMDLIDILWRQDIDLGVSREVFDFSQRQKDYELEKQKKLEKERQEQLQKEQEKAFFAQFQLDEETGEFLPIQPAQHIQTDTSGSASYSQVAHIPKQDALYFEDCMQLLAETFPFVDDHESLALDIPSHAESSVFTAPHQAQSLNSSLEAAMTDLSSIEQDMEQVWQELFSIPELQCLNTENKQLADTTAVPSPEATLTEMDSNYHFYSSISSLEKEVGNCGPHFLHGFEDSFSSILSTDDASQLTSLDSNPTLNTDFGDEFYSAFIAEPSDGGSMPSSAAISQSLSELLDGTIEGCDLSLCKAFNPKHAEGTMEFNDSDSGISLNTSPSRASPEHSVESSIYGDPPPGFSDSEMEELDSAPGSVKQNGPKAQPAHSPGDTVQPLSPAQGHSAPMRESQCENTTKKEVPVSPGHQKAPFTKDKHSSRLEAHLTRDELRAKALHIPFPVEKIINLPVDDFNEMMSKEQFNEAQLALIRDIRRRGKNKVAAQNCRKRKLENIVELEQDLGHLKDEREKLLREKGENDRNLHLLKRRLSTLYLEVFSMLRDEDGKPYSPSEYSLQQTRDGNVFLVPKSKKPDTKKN
Kind of experiment: Activation of Nrf2 in mouse BV-2 cells assessed as upregulation of HO-1 protein expression after 24 hrs by Western blot analysis. It is filed as cell-based. Particulars: filed as activator, dose 2.5-10 µM.

Experiment [21] concerns the target T1, Nuclear factor erythroid 2-related factor 2 (Mus musculus). The experiment is described as follows: Activation of Nrf2 in mouse BV-2 cells assessed as upregulation of NQO1 protein expression after 24 hrs by Western blot analysis. As to conditions: filed as activator, dose 2.5-10 µM. It is filed as cell-based.
The target is the same in experiment [22]. Kind of experiment: Activation of Nrf2 in mouse BV-2 cells assessed as upregulation of GCLM protein expression after 24 hrs by Western blot analysis. Type of experiment: cell-based. Particulars: filed as activator, dose 2.5-10 µM.
A further experiment deals with BV-2. Kind of experiment: Antiinflammatory activity in mouse BV-2 cells transfected with Nrf2 siRNA assessed as inhibition of LPS-induced IL-6 production at 10 uM pretreated with compound for 2 hrs followed by LPS stimulation and further incubated for 18 hrs. It is filed as functional, cell-based. Particulars: time 20.0 hrs.

Consider 1 compound from ChEMBL document CHEMBL4811256, “Synthesis and evaluation of multi-target-directed ligands with BACE-1 inhibitory and Nrf2 agonist activities as potential agents against Alzheimer's disease” (Eur J Med Chem, 2021).

The source made the active and inactive calls. The rule behind the calls is not given here.

`CN1C(N)=N[C@](C)(c2cc(-n3[se]c4cc(F)ccc4c3=O)ccc2F)CS1(=O)=O`: the V0 in experiment [1] is 183 µM/min. Besides, the Activity entry is “Dose-Dependent Effect” in the experiment on PC-12 [2]; 78.6% with PC-12 [3]; 2% with PC-12 [4]; 12.3% in the experiment with PC-12 [5]; 2.1% in the experiment on PC-12 [7]; 4.7% with PC-12 [8]. For the same compound, the Activity in the experiment on PC-12 [10] is 6.7%; with PC-12 [11], 1.4%; with PC-12 [12], “Dose-Dependent Effect”; in experiment [20], “Dose-Dependent Effect”; in [21] it was “Dose-Dependent Effect”; in experiment [22], “Dose-Dependent Effect”. Also, the viability at 5 µM in the experiment with PC-12 [6] worked out at 89%. Further, the viability at 10 µM in the experiment with PC-12 [9] worked out at 90.5%. Besides, the outcome in the experiment with PC-12 [13], with PC-12 [16], in the experiment on PC-12 [17], in the experiment with PC-12 [18] and with PC-12 [19] was Active. In addition, the result in the experiment on PC-12 [14], in the experiment on PC-12 [15] and with BV-2 was inactive.
